Measured values taken from paper PMC8395308 (International Journal of Molecular Sciences, 2021).
“And” between values parts separate entries of the source, which are not always exact repeats. Equal values may be shown once. “Also recorded” adds a separate entry of the source. Where a name gives a salt, the structure may show the parent alone.

Columns and labels:
BoNT/A = BoNT/A (Clostridium botulinum, UniProt P0DPI0); set-up: species or system CD-1 mice; conditions: mouse, in vivo; for Survival (protection) of treated mice / Therapeutic effect versus solvent (log-rank test): ip
BoNT/E = tested on: BoNT/E; set-up: species or system CD-1 mice; conditions: mouse, in vivo
[1] = molecular target: receptor binding domain (HC fragment) of BoNT/A binding to the fourth luminal domain of SV2C (Clostridium botulinum, UniProt P0DPI0); experiment: biochemical; set-up: species or system Mus musculus; conditions: for IC50: IC50 (µM), TSP-RSP interaction inhibition; for inhibition at 100 µM: read-out: Maximal Inhibition (%)
Sequence of receptor binding domain (HC fragment) of BoNT/A binding to the fourth luminal domain of SV2C (P0DPI0 872-1296 limits assumed): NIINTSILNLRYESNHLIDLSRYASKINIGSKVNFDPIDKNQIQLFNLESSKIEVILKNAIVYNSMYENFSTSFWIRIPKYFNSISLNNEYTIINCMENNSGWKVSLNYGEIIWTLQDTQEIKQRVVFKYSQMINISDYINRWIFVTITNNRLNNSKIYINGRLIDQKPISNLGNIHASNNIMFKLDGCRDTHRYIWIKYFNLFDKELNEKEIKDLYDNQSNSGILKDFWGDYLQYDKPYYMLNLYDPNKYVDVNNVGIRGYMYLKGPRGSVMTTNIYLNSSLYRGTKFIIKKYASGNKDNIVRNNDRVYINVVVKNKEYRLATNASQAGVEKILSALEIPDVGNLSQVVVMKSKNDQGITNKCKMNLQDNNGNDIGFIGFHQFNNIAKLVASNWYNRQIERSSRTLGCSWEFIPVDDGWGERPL

Sequence of BoNT/A (P0DPI0 2-448 limits assumed): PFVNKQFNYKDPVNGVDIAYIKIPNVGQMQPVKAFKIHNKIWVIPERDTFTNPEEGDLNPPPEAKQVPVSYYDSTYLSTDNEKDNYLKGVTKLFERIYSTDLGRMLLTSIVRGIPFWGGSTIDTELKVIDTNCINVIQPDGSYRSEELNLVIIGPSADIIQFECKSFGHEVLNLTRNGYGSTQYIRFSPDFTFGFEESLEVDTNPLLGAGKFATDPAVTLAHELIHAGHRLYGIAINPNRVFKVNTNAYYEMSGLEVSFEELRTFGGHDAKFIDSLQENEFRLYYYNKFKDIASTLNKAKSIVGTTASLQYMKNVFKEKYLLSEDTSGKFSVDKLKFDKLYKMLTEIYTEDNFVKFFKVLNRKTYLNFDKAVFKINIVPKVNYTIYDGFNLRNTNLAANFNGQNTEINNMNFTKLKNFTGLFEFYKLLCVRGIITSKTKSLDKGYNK
Sequence of BoNT/A (P0DPI0 449-1296 limits assumed): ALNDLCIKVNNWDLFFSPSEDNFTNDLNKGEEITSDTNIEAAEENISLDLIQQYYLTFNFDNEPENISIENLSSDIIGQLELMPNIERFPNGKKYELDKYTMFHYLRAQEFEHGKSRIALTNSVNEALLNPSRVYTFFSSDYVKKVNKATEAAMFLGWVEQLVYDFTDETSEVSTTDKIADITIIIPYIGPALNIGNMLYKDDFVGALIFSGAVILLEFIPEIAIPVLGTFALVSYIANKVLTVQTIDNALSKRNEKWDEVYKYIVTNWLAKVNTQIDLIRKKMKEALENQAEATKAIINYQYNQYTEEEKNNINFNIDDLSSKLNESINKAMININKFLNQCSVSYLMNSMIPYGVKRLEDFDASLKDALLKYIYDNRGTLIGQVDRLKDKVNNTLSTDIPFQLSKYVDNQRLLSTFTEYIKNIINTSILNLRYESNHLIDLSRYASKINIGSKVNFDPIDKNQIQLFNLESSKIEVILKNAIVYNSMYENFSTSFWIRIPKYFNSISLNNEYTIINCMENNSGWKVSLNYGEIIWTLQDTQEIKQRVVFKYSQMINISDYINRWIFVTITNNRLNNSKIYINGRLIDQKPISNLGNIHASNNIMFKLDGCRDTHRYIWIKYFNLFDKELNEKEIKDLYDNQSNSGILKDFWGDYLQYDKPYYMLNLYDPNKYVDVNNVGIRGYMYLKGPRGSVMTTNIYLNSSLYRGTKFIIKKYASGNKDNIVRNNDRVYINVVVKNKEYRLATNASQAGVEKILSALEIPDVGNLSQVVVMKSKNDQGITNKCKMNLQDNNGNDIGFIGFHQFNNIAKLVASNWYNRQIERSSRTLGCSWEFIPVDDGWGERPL

Structure (SMILES) | median survival time (hr) treated (BoNT/A) | survival time of the nonsurviving treated animals (BoNT/A) | Survival (protection) of treated mice (BoNT/A) | Therapeutic effect versus solvent (log-rank test) (BoNT/A) | median TTD / median survival time of treated mice (BoNT/E) | median survival time (hr) treated (BoNT/E) | IC50 [1] | inhibition at 100 µM [1] | Maximal Inhibition (%) [1] | median survival time / TTD in the treated group (BoNT/A) | Survival of treated mice (BoNT/E; ip) | Therapeutic effect versus solvent (log-rank test) (BoNT/E; ip) | Inhibition of the interaction between HC/A fragment and SV2C [1]
NC(Cc1cc(O)c(O)cc1O)C(=O)O (racemic) [6-OHD, 6-Hydroxy-DL-DOPA] | 28.7 h | 28.7 h | 33% | Significant beneficial therapeutic effects | 9.8 h | 9.8 h | 1 µM | 98% | – | – | – | – | –
CO/N=C(\C(=O)N[C@@H]1C(=O)N2C(C(=O)O)=C(COC(C)=O)CS[C@H]12)c1csc(N)n1 [Cefotaxime sodium] | 21.0 h | – | – | did not exert beneficial therapeutic effects | – | – | 3 µM | ~90% | 91% | – | – | – | –
NC(CO)C(=O)NNCc1ccc(O)c(O)c1O (stereo not drawn) [Benserazide, Benserazide hydrochloride] | 29.8 h | – | – | Significant beneficial therapeutic effects | 10.7 h | 10.7 h | 18 µM | 95% | – | 29.8 h | – | – | –
NCCOc1cc(C(=O)Nc2cc(OCCN)c3ccccc3n2)nc(C(=O)Nc2cc(OCCN)c3ccccc3n2)c1 [Pyridostatin trifluoroacetate salt] | 22.17 h | – | – | did not exert beneficial therapeutic effects | – | – | 4 µM | ~80% | – | – | – | – | –
CC(=O)OCC1=C(C(=O)O)N2C(=O)[C@@H](NC(=O)CCC[C@@H](N)C(=O)O)[C@H]2SC1 [Cephalosporin C zinc salt] | – | – | – | – | – | – | 27 µM | ~90% | – | – | – | – | –
C=CC1=C(C)c2cc3[nH]c(cc4nc(cc5[nH]c(cc1n2)c(C)c5CCC(=O)O)C(CCC(=O)O)=C4C)c(C)c3C=C [PPIX, Protoporphyrin IX disodium] | 26.0 h | – | – | Significant beneficial therapeutic effects | 10.7 h | 10.7 h | 84 µM | ~80% | – | 26.0 h | – | – | –
O=C(O)C1=CC(=C(c2ccc(O)c(C(=O)O)c2)c2ccc(O)c(C(=O)O)c2)C=CC1=O [ATA, Aurintricarboxylic acid] | – | 96 h | 92% and 91.6% | Significant beneficial therapeutic effects | – | – | 2 µM | 100% | – | – | 100% | fully protective; also recorded: completely protected | –
C[C@@](Cc1ccc(O)c(O)c1)(NN)C(=O)O [carbidopa] | – | – | – | – | – | – | – | – | – | – | – | – | failed to inhibit
Nc1nc2[nH]c(=O)cnc2c(=O)[nH]1 [Isoxanthopterin] | 26.67 h | – | – | did not exert beneficial therapeutic effects | – | – | 34 µM | 68% | – | – | – | – | –
